# Measurements from US10130590B2, “Methods of treating cancer with atovaquone-related compounds” (DANA-FARBER CANCER INSTITUTE, INC., priority 2013, dated 2018).
# Where two headings read alike, the source gives them in different places.
# Assays:
# [1] = tested on: STAT1; test: STAT1 cell-based luciferase reporter system
# Experimental: To determine if atovaquone inhibits STAT3, it was tested in a cell-based reporter system of STAT3 transcriptional activity (Nelson E A, et al. (2008) Nifuroxazide inhibits survival of multiple myeloma cells by directly inhibiting STAT3. Blood 112(13):5095-5102). These cells lack basal STAT3 activation; upon IL-6 treatment, STAT3 becomes activated and drives transcription of a STAT3-dependent luciferase reporter gene. The STAT3-luc reporter cells were pre-treated with drug for 1 hour, then stimulated with IL-6 (10 ng/ml) for 5 hr. Activity of firefly luciferase was measured and normalized by cell viability (Cell Titer Glo). […] To determine if atovaquone inhibits STAT3 activity specifically over other transcription factors, it was tested in cell-based reporter systems for STAT1 and STAT5, two other STAT family members, and NF-κB, an unrelated transcription factor.
# [2] = tested on: INA-6, U266 and HEL cells; test: Annexin V/PI flow cytometry in STAT3-dependent cancer cells; type: cell-based; details: INA-6 15 μM 24 hours; U266 and HEL 20 μM 48 hours
# Experimental: Annexin V/PI staining was performed using Annexin V:FITC Apoptosis Detection Kit I (BD Biosciences). Staining for cell cycle analysis was performed as previously described (267). Staining for cell-surface receptors was performed in 50 μl PBS+2% FBS with 2 μl antibody to IL6R (BioLegend #352803) or 5 μl antibody to gp130 (BD Biosciences #555757) for 20 minutes on ice in the dark. Cells were washed twice, then resuspended in 300 μl of the same buffer. Samples were analyzed on a BD FACSCanto II machine. Transfection and siRNA Cells were reverse-transfected using Lipofectamine RNAiMAX (Invitrogen); the culture medium was changed 24 hours later. Control siRNA (D-001210-02) and REDD1 siRNA (M-010855-01) were from Thermo Scientific Dharmacon.
# Next, the effect of atovaquone on the growth and survival of STAT3-dependent cancer cells was examined Survival of the multiple myeloma cell line INA-6 is exquisitely dependent on IL-6 added to culture medium and resultant STAT3 activation. […] The other cell lines with constitutively-active STAT3, U266 and HEL, were also killed by atovaquone.
# [3] = tested on: K562 and U266 cells; test: Gene expression microarrays and qRT-PCR for atovaquone-induced genes; type: cell-based
# Experimental: Gene expression was analyzed in triplicate, normalized by 18S rRNA, and expressed as mean±SEM. For gene expression microarrays, RNA was isolated by Trizol, purified further on RNeasy columns, and profiled using Affymetrix Human Gene 1.0 ST arrays (Affymetrix). Results were deposited under GEO Accession: GSE46575.
# To discover the gene whose induction by atovaquone was responsible for mTOR inhibition, gene expression microarrays were performed in K562 and U266 cells. It was reasoned that induction of the causative factor must be common to all cell lines in which atovaquone inhibits the mTOR pathway. […] Of these, REDD1 is a known negative regulator of mTOR, whose activity is dependent on the TSC1/2-complex.
# [4] = cited from earlier work
smiles,measurement,setting,value
"O=C1C(O)=C([C@H]2CC[C@H](c3ccc(Cl)cc3)CC2)C(=O)c2ccccc21 [atovaquone, trans-2-[4-(4-chlorophenyl)cyclohexyl]-3-hydroxy-1,4-naphthalenedione]",STAT1 transcription factor activity,[1],modestly affected at the higher doses
same,apoptosis (annexin V and PI staining),[2],inducing apoptotic cell death
same,REDD1 expression,[3],inducing the expression of REDD1
same,plasma concentrations achieved in patients,[4]; patients taking standard doses,40 to 80 µM
same,plasma concentrations achieved in patients,[4]; patients,15000 to 30000 ng/mL
